Assay results as given in patent US20250059174A1, “Pharmaceutical Compounds and Compositions as C-Kit Kinase Inhibitors” (Enanta Pharmaceuticals, Inc., priority 2023, published 2025).

What was measured:
M-07e cells = assay: M-07e cellular assay (SCF-mediated cell proliferation); format: cell-based; details: Homo sapiens, 72 hours, CellTiter Glo
How it was run: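 EC50 values reflect inhibition of SCF-driven proliferation, with SCF at EC90 and a 72 h compound exposure, measured as CellTiter Glo luminescence. Growth is scaled between no-SCF (0%) and untreated (100%) wells.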

[1] = molecular target: Recombinant human c-KIT kinase (Homo sapiens (Human), UniProt P10721); assay: c-KIT kinase chemiluminescence assay (ADP-Glo); format: biochemical; details: ATP 50 μM
Sequence of Recombinant human c-KIT kinase (P10721 26-976): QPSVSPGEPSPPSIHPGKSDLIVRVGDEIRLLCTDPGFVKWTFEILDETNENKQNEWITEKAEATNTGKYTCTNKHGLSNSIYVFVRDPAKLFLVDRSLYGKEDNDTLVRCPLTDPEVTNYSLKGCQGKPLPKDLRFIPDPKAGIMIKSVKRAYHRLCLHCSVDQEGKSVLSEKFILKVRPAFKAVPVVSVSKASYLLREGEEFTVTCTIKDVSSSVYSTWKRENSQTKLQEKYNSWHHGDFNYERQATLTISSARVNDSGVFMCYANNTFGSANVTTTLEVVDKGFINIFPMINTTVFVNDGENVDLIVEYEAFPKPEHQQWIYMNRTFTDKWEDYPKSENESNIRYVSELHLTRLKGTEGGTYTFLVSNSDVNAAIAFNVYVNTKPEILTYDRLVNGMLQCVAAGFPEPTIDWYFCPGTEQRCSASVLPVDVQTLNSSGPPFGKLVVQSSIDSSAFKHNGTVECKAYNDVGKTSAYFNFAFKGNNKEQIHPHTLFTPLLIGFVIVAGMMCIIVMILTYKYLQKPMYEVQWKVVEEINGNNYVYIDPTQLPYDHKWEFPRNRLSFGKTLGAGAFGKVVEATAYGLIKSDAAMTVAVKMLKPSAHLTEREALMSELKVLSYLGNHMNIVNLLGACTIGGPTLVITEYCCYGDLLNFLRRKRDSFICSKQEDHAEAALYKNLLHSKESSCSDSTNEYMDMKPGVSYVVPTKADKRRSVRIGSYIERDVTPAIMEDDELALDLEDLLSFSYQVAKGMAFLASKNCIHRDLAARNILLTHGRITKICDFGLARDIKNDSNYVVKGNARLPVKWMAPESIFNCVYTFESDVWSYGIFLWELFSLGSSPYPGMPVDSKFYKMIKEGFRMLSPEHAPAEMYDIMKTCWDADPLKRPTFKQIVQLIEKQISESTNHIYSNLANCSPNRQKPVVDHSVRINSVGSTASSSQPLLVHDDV
How it was run: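 ADP formed by c-KIT on polyEY over 2 h at RT (after 30 min enzyme preincubation; Tris pH 7.5, MgCl2, BSA, DTT buffer) was detected by ADP-Glo luminescence. IC50 and Hill slope were fitted to control-normalized activity across compound concentrations.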

Row | Compound | EC50 (M-07e cells) | IC50 [1]
1 | Cc1ncc(-c2ccc(C3CC3)cn2)cc1NC(=O)c1cnn2ccc(N3CC4(C3)CC(O)(C(F)F)C4)cc12 [Example 356] | < 100 nM | < 100 nM
2 | Cc1ccc(-c2ncc(C3CC3)cn2)cc1NC(=O)c1cnn2cc(-c3cn(CC(C)(C)O)nn3)ccc12 [Example 132-14] | < 100 nM | < 100 nM
3 | Cc1ccc(-c2noc([C@H]3C[C@@H]3F)n2)cc1NC(=O)c1cnn2ccc(-c3ccc(N)nc3C)cc12 [Example 171-29] | < 100 nM | < 100 nM
4 | Cc1ccc(-c2noc([C@H]3C[C@@H]3F)n2)cc1NC(=O)c1cnn2ccc(N3CC4(C3)CS(=O)(=O)C4)cc12 [Example 187] | < 100 nM | < 100 nM
5 | COC(=O)N1CC(F)(c2nc(-c3cnc(C)c(NC(=O)c4cnn5ccc(N6CC7(C6)CC(O)(C(F)F)C7)cc45)c3)no2)C1 [Example 281-104] | > 1000 nM | > 1000 nM
6 | Cc1ncc(-c2noc([C@H]3C[C@@H](C(F)(F)F)C3)n2)cc1NC(=O)c1cnn2ccc(N3CC4(C3)CC(O)(C(F)F)C4)cc12 [Example 281-62] | < 100 nM | < 100 nM
7 | Cc1ccc(-c2noc(N3CC(F)(F)C3)n2)cc1NC(=O)c1cnn2ccc(N3CC4(C3)CC(O)(C(F)F)C4)cc12 [Example 281-98] | < 100 nM | < 100 nM
8 | Cc1ccc(-c2ncc(C(C)C)cn2)cc1NC(=O)c1cnn2ccc(N3CC4(COC4)C3)cc12 [Example 345] | < 100 nM | < 100 nM
9 | Cc1ccc(-c2noc([C@H]3C[C@@H]3F)n2)cc1NC(=O)c1cnc(-c2ccc3[nH]ncc3c2)o1 [Example 292] | < 100 nM | < 100 nM
10 | Cc1ccc(-c2noc([C@H]3C[C@@H]3F)n2)cc1NC(=O)c1cnn2ccc(N3CC[C@H](N(C)C(=O)OC(C)(C)C)C3)cc12 [Example 203] | 100 to 1000 nM | < 100 nM
11 | CCOC(=O)N1CC(c2nc(-c3ccc(C)c(NC(=O)c4cnn5ccc(N6CC7(COC7)C6)cc45)c3)no2)C1 [Example 281-110] | < 100 nM | < 100 nM
12 | Cc1ccc(-c2ncc(C3CC3)cn2)cc1NC(=O)c1cnc(-c2ccc3c(c2)CC(=O)N3)o1 [Example 363] | < 100 nM | < 100 nM
13 | Cc1ccc(-c2noc([C@H]3C[C@@H]3F)n2)cc1NC(=O)c1cnn2ccc(N3CCS(=O)(=O)CC3)cc12 [Example 44] | < 100 nM | < 100 nM
14 | Cc1ccc(-c2noc([C@H]3C[C@@H]3F)n2)cc1NC(=O)c1cccnc1 [Example 3] | > 1000 nM | > 1000 nM
15 | COC(=O)N1CCC(c2nc(-c3ccc(C)c(NC(=O)c4cnn5ccc(N6CC7(COC7)C6)cc45)c3)no2)C1 (centres unmarked) [Example 281-131] | < 100 nM | < 100 nM
16 | CC(=O)N1CC2(CC(c3nc(-c4cnc(C)c(NC(=O)c5cnn6ccc(N7CC8(COC8)C7)cc56)c4)no3)C2)C1 [Example 281-76] | > 1000 nM | > 1000 nM
17 | Cc1ncc(-c2noc(C3CN(C(=O)[C@H]4C[C@@H]4F)C3)n2)cc1NC(=O)c1cnn2ccc(N3CC4(C3)CC(O)(C(F)F)C4)cc12 [Example 281-79] | > 1000 nM | > 1000 nM
18 | Cc1ccc(-c2noc([C@H]3C[C@@H](OC(F)(F)F)C3)n2)nc1NC(=O)c1cnn2ccc(N3CC4(COC4)C3)cc12 [Example 267] | 100 to 1000 nM | 100 to 1000 nM
19 | Cc1ccc(-c2noc([C@H]3C[C@@H](OC(F)(F)F)C3)n2)cc1NC(=O)c1cnn2ccc(N3CC4(COC4)C3)cc12 [Example 243] | < 100 nM | < 100 nM
20 | Cc1ncc(-c2noc([C@H]3CC34CC4)n2)cc1NC(=O)c1cnn2ccc(N3CC4(C3)CC(O)(C(F)F)C4)cc12 [Example 281-16] | < 100 nM | < 100 nM
21 | Cc1ncc(C(=O)Nc2cc(-c3noc([C@H]4C[C@@H]4F)n3)ccc2C)s1 [Example 34] | > 1000 nM | > 1000 nM
22 | Cc1ccc(-c2noc([C@H]3C[C@@H]3F)n2)cc1NC(=O)c1cncn1C [Example 2] | > 1000 nM | > 1000 nM
23 | Cc1ccc(-c2noc([C@H]3C[C@@H]3F)n2)cc1NC(=O)c1cnn2ccc(-c3c(C)nn(C4COC4)c3C)cc12 [Example 145] | < 100 nM | < 100 nM

Row | Compound | EC50 (M-07e cells) | IC50 [1]
24 | CC(=O)N1CCC(c2nc(-c3cnc(C)c(NC(=O)c4cnn5ccc(N6CC7(COC7)C6)cc45)c3)no2)C1 (centres unmarked) [Example 281-74] | > 1000 nM | > 1000 nM
25 | Cc1ccc(-c2noc([C@H]3C[C@@H]3F)n2)c(F)c1NC(=O)c1cnn2ccc(N3CC4(COC4)C3)cc12 [Example 281-65] | < 100 nM | < 100 nM
26 | COC(=O)N1CC(c2nc(-c3cnc(C)c(NC(=O)c4cnn5cc(-c6cn(C(F)F)nn6)ccc45)c3)no2)C1 [Example 132-16] | 100 to 1000 nM | 100 to 1000 nM
27 | Cc1ccc(-c2noc([C@H]3C[C@@H]3F)n2)cc1NC(=O)c1cnn2ccc(N3CC4(CN(C(=O)C5CC(F)(F)C5)C4)C3)cc12 [Example 241-12] | < 100 nM | < 100 nM
28 | Cc1ccc(-c2noc([C@H]3C[C@@H]3F)n2)cc1NC(=O)c1cnn2cc(Cl)c(Br)cc12 [Example 73] | > 1000 nM | > 1000 nM
29 | Cc1ccc(-c2noc([C@H]3C[C@@H]3F)n2)cc1NC(=O)c1cnn2ccc(N3CCC34COC4)cc12 [Example 176] | < 100 nM | < 100 nM
30 | Cc1ccc(-c2noc([C@H]3C[C@@H]3F)n2)cc1NC(=O)c1cnc(-c2cccc3[nH]ccc23)o1 [Example 308-29] | 100 to 1000 nM | < 100 nM
31 | Cc1ncc(-c2noc(C3CN(C(=O)[C@H]4CC4(F)F)C3)n2)cc1NC(=O)c1cnn2ccc(N3CC4(C3)CC(O)(C(F)F)C4)cc12 [Example 281-91] | > 1000 nM | > 1000 nM
32 | Cc1ccc(-c2noc([C@H]3C[C@@H]3F)n2)cc1NC(=O)c1cnn2cc(-c3cn(C45CC(F)(C4)C5)nn3)ccc12 [Example 125] | < 100 nM | 100 to 1000 nM
33 | Cc1ccc(-c2noc([C@H]3C[C@@H]3F)n2)cc1NC(=O)c1cnc(-c2ccc3cn[nH]c3c2)o1 [Example 294] | 100 to 1000 nM | < 100 nM
34 | Cc1ccc(-c2noc([C@H]3C[C@@H]3F)n2)cc1NC(=O)c1cnn2ccc(N3CC4(CN(C)C4)C3)cc12 [Example 202] | 100 to 1000 nM | 100 to 1000 nM
35 | Cc1ccc(-c2noc([C@H]3C[C@@H]3F)n2)cc1NC(=O)c1cnn2ccc(N3CC4(CN(CC(F)F)C4)C3)cc12 [Example 212] | < 100 nM | < 100 nM
36 | Cc1ncc(-c2noc([C@@H]3CN(C(=O)C(C)(F)F)[C@H]3C)n2)cc1NC(=O)c1cnn2ccc(N3CC4(C3)CC(O)(C(F)F)C4)cc12 [Example 281-13] | 100 to 1000 nM | 100 to 1000 nM
37 | Cc1ccc(-c2noc([C@H]3C[C@@H](OC(F)F)C3)n2)cc1NC(=O)c1cnn2cc(-c3cn(C(F)(F)C(=O)O)nn3)ccc12 [Example 132-3] | > 1000 nM | < 100 nM
38 | Cc1nccc(-c2ccn3ncc(C(=O)Nc4cc(-c5noc([C@H]6C[C@@H]6F)n5)ccc4C)c3c2)n1 [Example 171] | < 100 nM | < 100 nM
39 | Cc1ccc(-c2noc([C@H]3C[C@@H]3F)n2)cc1NC(=O)c1cnn2ccc(-c3cccnc3)cc12 [Example 150] | < 100 nM | < 100 nM
40 | Cc1ccc(-c2noc([C@H]3C[C@@H]3F)n2)cc1NC(=O)c1cnn2ccccc12 [Example 6] | < 100 nM | < 100 nM
41 | Cc1ccc(-c2noc([C@H]3C[C@@H]3F)n2)cc1NC(=O)c1cnn2cc(N3CC4(COC4)C3)ccc12 [Example 54] | < 100 nM | < 100 nM
42 | Cc1ccc(-c2noc([C@H]3C[C@@H]3F)n2)cc1NC(=O)c1cnc(-c2ccc3c(c2)OC(C)(C)C(=O)N3)o1 [Example 308-25] | 100 to 1000 nM | 100 to 1000 nM
43 | Cc1ccc(-c2noc([C@H]3C[C@@H]3F)n2)cc1NC(=O)c1cnn2ccc(N3CCO[C@H](C)C3)cc12 [Example 214] | < 100 nM | < 100 nM
44 | Cc1ccc(-c2noc(C34COC(C)(C3)C4)n2)cc1NC(=O)c1cnn2ccc(N3CC4(COC4)C3)cc12 [Example 281-6] | < 100 nM | 100 to 1000 nM
45 | Cc1ccc(-c2noc([C@H]3C[C@@H]3F)n2)cc1NC(=O)c1cccnn1 [Example 5] | > 1000 nM | > 1000 nM
46 | Cc1ccc(-c2noc([C@H]3C[C@@H]3F)n2)cc1NC(=O)c1cnn2ccc(-c3cn(C(F)F)nn3)cc12 [Example 111] | < 100 nM | 100 to 1000 nM
